Laboratory results taken from US12685315B2, “Herbicidal combination” (UPL do Brasil Industria e Comercio de Insumos Agropecuarios …, priority 2019, dated 2026).

What was measured:
[1] = tested on: Commelina benghalensis; assay: Field trial of triple mixes of amicarbazone, pre-emergence weed control; type: in vivo; settings: dose g ai/ha: Amicarbazone 75, Mesotrione 38, Ametryn 250, mix AMC + AME + MST 75 + 38 + 250
Protocol: (§1) Field trials were done to evaluate the efficacy and synergism of the triple mixes of amicarbazone with other herbicides for the control of weeds in pre and post-emergence application.
(§2) The composition of the present invention was applied. This test was performed for species of weeds: Grasses namely BRADC=Brachiaria decumbens, CCHEC=Cenchrus echinatus, ELEIN=Eleusine indica, TRCIN=Digitaria insularis and Broadleaves namely IAQGR=Ipomoea grandifolia, EPHHL=Euphorbia heterophylla, COMBE=Commelina benghalensis. Data were collected at various period after application of the composition to the soil and calculated.

[2] = tested on: Eleusine indica; assay: Field trial of triple mixes of amicarbazone, pre and post-emergence weed control; type: in vivo; settings: Table 10, dose g ai/ha: Amicarbazone 75, Mesotrione 38, Ametryn 250, mix AMC + AME + MST 75 + 38 + 250
Protocol: as §1, §2

Structure (SMILES) | % Control ([1]; Table 11, 21 DAA) | % Control ([1]; Table 11, 28 DAA) | % Control ([1]; Table 11, 35 DAA) | % Control ([2]; Post-Emergence, 14 DAA) | % Control ([2]; Post-Emergence, 21 DAA) | % Control ([2]; Post-Emergence, 28 DAA) | % Control ([2]; Pre-Emergence, 14 DAA) | % Control ([2]; Pre-Emergence, 21 DAA) | % Control ([2]; Pre-Emergence, 28 DAA)
CS(=O)(=O)c1ccc(C(=O)C2C(=O)CCCC2=O)c([N+](=O)[O-])c1 [Mesotrione] | 67.5% | 65.0% | 51.3% | 57.5% | 43.8% | 35.0% | 26.3% | 2.5% | 0.0%
CCNc1nc(NC(C)C)nc(SC)n1 [Ametryn] | 15.0% | 8.8% | 2.5% | 53.8% | 27.5% | 22.5% | 51.3% | 42.5% | 35.0%
